Our source for the Ki values is ChEMBL document CHEMBL3286333, “Concise synthesis of C-1-cyano-iminosugars via a new Staudinger/aza Wittig/Strecker multicomponent reaction strategy” (Bioorg Med Chem Lett, 2014).

Assay [1] concerns the target T1, Lysosomal acid glucosylceramidase (Homo sapiens, UniProt P04062).
T1 sequence (P04062 whole entry): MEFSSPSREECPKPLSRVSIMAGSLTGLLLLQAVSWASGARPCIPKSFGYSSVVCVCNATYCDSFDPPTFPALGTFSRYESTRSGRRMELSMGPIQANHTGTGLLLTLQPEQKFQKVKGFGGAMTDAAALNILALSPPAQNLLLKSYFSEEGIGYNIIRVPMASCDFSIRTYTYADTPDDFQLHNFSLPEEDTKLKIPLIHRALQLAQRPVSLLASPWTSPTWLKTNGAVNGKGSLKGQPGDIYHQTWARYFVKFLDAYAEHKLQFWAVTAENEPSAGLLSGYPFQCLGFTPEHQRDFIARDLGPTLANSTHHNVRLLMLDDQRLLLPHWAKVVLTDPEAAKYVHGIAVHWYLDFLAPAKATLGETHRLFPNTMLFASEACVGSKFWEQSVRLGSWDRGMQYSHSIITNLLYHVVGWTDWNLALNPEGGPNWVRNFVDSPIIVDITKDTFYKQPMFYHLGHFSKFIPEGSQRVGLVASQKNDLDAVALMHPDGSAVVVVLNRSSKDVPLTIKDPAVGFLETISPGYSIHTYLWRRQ
The assay is described as follows: Inhibition of human lysosomal beta-glucocerebrosidase.

The target in assay [2] is T1, Lysosomal acid glucosylceramidase. The assay is described as follows: Inhibition of human lysosomal beta-glucocerebrosidase using 2,4-dinitrophenyl-beta-D-glucopyranoside as substrate by UV spectrophotometric analysis.

pKi: −log10 of the molar value.

On to `O[C@@H]1[C@@H](O)[C@@H](CCCCCOCC23CC4CC(CC(C4)C2)C3)NC[C@H]1O`, for which the pKi (usually the negative decadic logarithm of the Ki, by convention in mol/L) in assay [1] is 9.00.
For the compound `N#C[C@H]1NC[C@@H](O)[C@H](O)[C@H]1O`, the pKi in assay [2] was 4.47.
With `N#C[C@H]1N[C@H](CO)[C@@H](O)[C@H](O)[C@H]1O`, the pKi in assay [2] was 3.15.
As to `CN(C)c1cccc2c(S(=O)(=O)NC[C@H]3NC[C@@H](O)[C@H](O)[C@H]3O)cccc12`, in assay [2], the pKi was 8.12.
